In patent US20100010060A1, “Isoindolin-1-One-, Isoindolin-3-One- and Isoindolin-1,3-Dione-Derivatives and Use Thereof” (Bayer Healthcare AG, priority 2006, published 2010):

Molecular target: human factor Xa (FXa) (Homo sapiens, UniProt P00742)
Experiment: Determination of the factor Xa inhibition (chromogenic substrate)
Type: biochemical
Conditions: human FXa 0.5 nmol/l, 150 μmol/l Pefachrome FXa, 25° C., pH 8.3, extinction at 405 nm
Procedure: a.1) Determination of the Factor Xa Inhibition:
The enzymatic activity of human factor Xa (FXa) is measured using the conversion of a chromogenic substrate specific for FXa. Factor Xa cleaves p-nitroaniline from the chromogenic substrate. The determinations are carried out in microtitre plates as follows:
The test substances, in various concentrations, are dissolved in DMSO and incubated for 10 minutes at 25° C. with human FXa (0.5 nmol/l dissolved in 50 mmol/l of Tris buffer [C,C,C-tris(hydroxymethyl)aminomethane], 150 mmol/l of NaCl, 0.1% BSA [bovine serum albumin], pH=8.3). Pure DMSO is used as control. The chromogenic substrate (150 μmol/l of Pefachrome® FXa from Pentapharm) is then added. After an incubation time of 20 minutes at 25° C., the extinction at 405 nm is determined.

Sequence of human factor Xa (FXa) (P00742 235-488 limits assumed): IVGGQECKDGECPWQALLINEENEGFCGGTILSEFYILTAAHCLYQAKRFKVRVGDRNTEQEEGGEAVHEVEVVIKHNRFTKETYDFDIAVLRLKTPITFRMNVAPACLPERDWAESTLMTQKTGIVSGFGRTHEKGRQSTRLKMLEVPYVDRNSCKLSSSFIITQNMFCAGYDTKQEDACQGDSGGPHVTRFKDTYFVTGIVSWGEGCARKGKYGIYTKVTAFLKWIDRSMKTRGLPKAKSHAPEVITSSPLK
Sequence of human factor Xa (FXa) (P00742 41-179 partner limits assumed): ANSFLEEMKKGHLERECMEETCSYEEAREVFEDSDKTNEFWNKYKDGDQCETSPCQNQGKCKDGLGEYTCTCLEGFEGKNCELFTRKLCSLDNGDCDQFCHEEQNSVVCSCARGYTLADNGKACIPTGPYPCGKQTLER

In the case of `N=C1OCCN1c1cccc(CN2Cc3cccc(NC(=O)c4ccc(Cl)s4)c3C2=O)c1` [Example 5, 5-Chloro-N-{2-[3-(2-imino-1,3-oxazolidin-3-yl)benzyl]-3-oxo-2,3-dihydro-1H-isoindol-4-yl}-thiophene-2-carboxamide methanesulphonate], the IC50 is reported as 1.1 nM.
